Measured values reported in ChEMBL document CHEMBL5252594.
Calls of active or inactive are those of the source.

How the values were obtained:
Assay type in all cases: functional, organism-based
Aedes aegypti [1] = experiment: Larvicidal activity against Aedes aegypti Rockefeller strain L3 Larvae assessed as mortality at 150 ug/ml measured after 72 hrs; conditions: dose 150.0 µg/ml
Aedes aegypti [2] = experiment: Larvicidal activity against Aedes aegypti Rockefeller strain L3 Larvae assessed as mortality at 90 ug/ml measured after 48 hrs; conditions: dose 90.0 µg/ml
Aedes aegypti [3] = experiment: Larvicidal activity against Aedes aegypti Rockefeller strain L3 Larvae assessed as mortality at 90 ug/ml measured after 72 hrs; conditions: dose 90.0 µg/ml
Aedes aegypti [4] = experiment: Larvicidal activity against Aedes aegypti Rockefeller strain L3 Larvae assessed as mortality at 150 ug/ml measured after 24 hrs; conditions: dose 150.0 µg/ml
Aedes aegypti [5] = experiment: Larvicidal activity against Aedes aegypti Rockefeller strain L3 Larvae assessed as mortality at 150 ug/ml measured after 48 hrs; conditions: dose 150.0 µg/ml
Aedes aegypti [6] = experiment: Larvicidal activity against Aedes aegypti Rockefeller strain L3 Larvae assessed as mortality at 90 ug/ml measured after 24 hrs; conditions: dose 90.0 µg/ml

Measured: Activity

O=C(/C=C/c1ccc(O)c(O)c1)O[C@@H]1C[C@](O)(C(=O)O)C[C@@H](OC(=O)/C=C/c2ccc(O)c(O)c2)[C@H]1O
inactive: all assays above
